# Data reported in PubChem BioAssay AID1996.
# Non-standard residues stand in square brackets, D forms with d. Residues, ends and D or L forms follow the SMILES beside them. ξ: configuration not given here. *: point of attachment. Tos = Cc1ccc(S(=O)(=O)*)cc1; ξP = O=C(O)C1CCCN1
# Conditions: buffer; pH 7.4; 200.0 µM
row,Compound,solubility kinetic [µg/mL]
1,Oc1ccc(Cl)cc1CNc1cccc2cccnc12,0.5
2,Cc1cccc(NC(=O)NCc2cccnc2)c1C,35.6
3,Cc1ccc(CNS(=O)(=O)c2c(C)[nH]c(=O)[nH]c2=O)cc1,> 46.4
4,COc1ccc(NC(=O)COc2ccc3c(c2)CCC3)cc1,2.7
5,COc1cc(-c2noc(CCC(=O)NC3CCCCC3)n2)cc(OC)c1OC,10
6,CCOc1ncccc1C(=O)OCc1cccc([N+](=O)[O-])c1,0.5
7,Cc1ccc(CNC(=O)CSc2nc(C)cs2)cc1,> 43.9
8,CC(=O)Nc1ccc2c(c1)CCCC2=O,30.2
9,CCSc1ncc(Cl)c(C(=O)Nc2ccccc2OC)n1,< 0.2
10,N/C(=N\OC(=O)C1CCCCC1)c1cccc(Br)c1,3.5
11,Cc1cccc(N2Cc3ccc(Br)cc3C2)c1,4.8
12,O=C1NC(c2ccc(Br)cc2)Oc2ccccc21 (stereo not given),2.1
13,CC(=O)NC(NC(=S)Nc1ccc(S(N)(=O)=O)cc1)C(Cl)(Cl)Cl (stereo not given),62.6
14,Cc1nc2cc(NC(=O)c3ccc(Cl)cc3)ccc2n1C,1
15,COCCNC(=O)C(=O)Nc1ccc(Cl)cc1C,> 40.6
16,COCCN1C(=O)c2ccc(C(=O)NCc3ccco3)cc2C1=O,> 49.2
17,Nc1nc(NCCO)nc(NC2CCCCC2)c1[N+](=O)[O-],39.1
18,CCOC(=O)c1c(-c2ccc(C)cc2)csc1/N=C/N(C)C,> 47.5
19,Cc1cc(Nc2ccc(Br)cc2)nc2ccccc12,< 0.3
20,COc1cc(OC)cc(C2=NC3(CCC(C)CC3)NC2=S)c1 (stereo not given),2.2
21,CCOC(=O)c1c(NC(=O)C2CCCO2)sc(C)c1C (stereo not given),30
22,CC12CC(O)C3c4ccc(O)cc4CCC3C1CC/C2=N\O (stereo not given),> 45.2
23,CC12CN3CC(C)(CN(C1)C3c1ccc(Cl)cc1)C2 (stereo not given),30.9

row,Compound,solubility kinetic [µg/mL]
1,O=C(NCc1ccc2c(c1)OCO2)c1ccco1,> 36.8
2,CN(C)/C=C/C(=O)c1cnc(-c2ccccn2)s1,> 38.9
3,CN(C(=O)c1ccc(Br)o1)C1CCCCC1,32.2
4,COC(=O)c1ccc(NC(=O)CCCN2C(=O)NC(C)(C)C2=O)cc1,> 52.1
5,COc1cccc(-c2nc(-c3cccs3)no2)c1,< 0.3
6,Cn1c(CNc2ccc(Br)cc2)nc2ccccc21,13
7,CC1CCC2(CC1)NC(=O)N(CC(=O)NC1CCCCC1C)C2=O (stereo not given),> 50.3
8,COC(=O)CN1C(=O)N/C(=C/c2ccc(OC)cc2)C1=O,17.4
9,Cc1ncc([N+](=O)[O-])n1CC(=O)Nc1cc(Cl)ccc1Cl,0.9
10,COc1ccc(NC(=O)CCCC(=O)NCCc2ccc(OC)c(OC)c2)cc1,46
11,COc1cc(CC(=O)OCC(=O)N2CCN(C(=O)c3ccco3)CC2)cc(OC)c1OC,> 67
12,Cc1ccc(/C=N/NC(=O)c2ccc3nc[nH]c3c2)s1,> 42.7
13,C=CCC1(/C=N/O)CCOC(C)(C)C1 (stereo not given),> 29.6
14,COc1cc2c(cc1OC)C(c1ccc(C)cc1)NC(=O)C2 (stereo not given),42.5
15,COCCNc1nc2nonc2nc1N(C)Cc1ccc(C)cc1,> 49.3
16,CN(C(=O)COC(=O)CNC(=O)c1sc2ccccc2c1Cl)C1CCS(=O)(=O)C1 (stereo not given),> 68.8
17,COc1ccc(-n2c(-c3ccc(C)cc3)nc3ccccc3c2=O)cc1,< 0.4
18,Cc1ccc(C)n1-c1cc([N+](=O)[O-])ccc1-n1ccnc1,35.9
19,Cc1ccc(C(=O)N2CCN(C34CC5CC(CC(C5)C3)C4)CC2)o1,> 49.3
20,Cc1ccc(OC(=O)c2ccncc2)c(C)c1,23.9
21,CN(C)S(=O)(=O)c1cccc(C(=O)N2CCN(C(=O)C3CCCO3)CC2)c1 (stereo not given),> 59.3
22,CN(C)c1cc(Nc2cccc(O)c2)c([N+](=O)[O-])c2nonc12,0.4
23,Cc1cc(C)cc(N2CC(C)Cn3c2nc2c3c(=O)[nH]c(=O)n2C)c1 (stereo not given),13

row,Compound,solubility kinetic [µg/mL]
1,COc1cccc(NC(=O)Nc2cccnc2)c1,> 36.5
2,CNc1snc(C)c1C(=O)OCC(=O)c1ccc(Cl)cc1,2.6
3,CCCS(=O)(=O)N1CCN=C1SCc1ccc(F)cc1,> 47.5
4,Cn1cnc2cc(NCc3cccs3)ccc21,27.1
5,FC(F)(F)c1ccnc(Oc2ccc(C3=NCCS3)cc2)c1,2.2
6,COc1cc(OC)c(C(=O)NCc2ccco2)cc1OC,> 43.7
7,Cc1cc(C)cc(NC(=O)CN2C(=O)C3CC=CCC3C2=O)c1 (stereo not given),> 46.9
8,Cc1ccc(NC(=O)Nc2cnccn2)cc1C,9.5
9,COc1ccc(CCNC(=O)c2cnc(C)cn2)cc1,> 40.7
10,Cc1ccc(C(=O)OCC(=O)NC2CCCC2)cc1C,15.8
11,COc1ccc(OC)c(CNc2ccc3c(c2)nc(C)n3C)c1,37.1
12,O=C(NCC1CCCO1)c1cc2c(=O)[nH]c3ccccc3c2s1 (stereo not given),2.6
13,Nc1ccc(CCNc2ncnc3c2ncn3[C@@H]2O[C@H](CO)[C@@H](O)[C@H]2O)cc1,> 58
14,CC1CCN(C(=S)c2cccc(O)c2)CC1,32.8
15,CCCNC(=O)NC(=O)CSc1cccc(C(F)(F)F)c1,12.9
16,CCCNC(=O)C(=O)Nc1cc2c3c(c1)CCC(=O)N3CCC2,> 47.3
17,C/C=C/c1ccc(OCCCCN2CCC(C)CC2)c(OC)c1,33.9
18,O=C1NC(C(=O)O)=CC(c2ccc([N+](=O)[O-])cc2)N1 (stereo not given),> 39.5
19,CC1(C)C(c2cccs2)=[N+]([O-])C2(CCCCC2=O)N1O (stereo not given),41.4
20,CCc1sc(C(=O)Nc2ccc(OC)c(S(=O)(=O)N3CCOCC3)c2)cc1C,22.9
21,CCOC(=O)NC(=S)Nc1ccc(C(C)(C)C)cc1,1.1
22,Cc1noc(C)c1C(=O)NCc1ccccc1Br,44.6

# More lines, now with the values ahead:
row,solubility kinetic [µg/mL],Compound
1,37.2,Cc1ccccc1N1C(=O)CC2(CCCC2)CC1=O
2,> 46.7,O=C(c1ccccc1)C(O)C(c1ccccc1)N1CCOCC1 (stereo not given)
3,> 47.4,Cc1ccc(C(=O)N2CCN(c3ccccn3)CC2)cc1Cl
4,< 0.6,Cc1cccc(NC(=O)CCCc2ccccc2)c1C
5,> 42.7,Cc1ccccc1C(=O)NCCN1CCOCC1.Cl
6,< 0.2,Cn1c(/C=C/c2cccc([N+](=O)[O-])c2)nc2ccccc2c1=O
7,14.5,CC(CCc1ccccc1)NC(=O)CCC1CCCC1 (stereo not given)
8,> 36.3,O=C(O)Cn1c(=O)c2cccn2c2ccccc21
9,39.8,CCc1ccc(OCC(O)CN2CCCC2)cc1.Cl (stereo not given)
10,> 45,O=C(O)c1cc([N+](=O)[O-])ccc1NCCCc1ccccc1
11,34.8,CCC(Oc1ccc(F)cc1)C(=O)N1CCCCCCC1 (stereo not given)
12,18.3,Cc1cc(NC(=O)CSCc2ccccc2C)no1
13,> 57.1,CC(=O)Nc1ccc(C(=O)N2CCc3cc4c(cc3C2C)OCCCO4)cc1 (stereo not given)
14,< 0.3,Clc1ccc2nc(-c3ccccc3)nc(C(Cl)Cl)c2c1
15,37.2,CC(=O)c1ccc(NC(=O)Cc2cccs2)cc1
16,> 57.8,O=C(O)/C=C\C(=O)O.c1ccc(Sc2ccccc2CN2CCCC2)cc1
17,> 42.7,CCN(Cc1ccncc1)C(=O)C(CO)c1ccccc1 (stereo not given)
18,7.2,O=[N+]([O-])c1ccccc1S(=O)(=O)N1CCN(c2ccccc2)CC1
19,> 62.2,COc1ccc(CCN2C(=S)N(c3ccccc3)C(=O)C2CC(=O)O)cc1OC (stereo not given)
20,0.6,O=C(NCc1ccccc1)Nc1cccc2ccccc12
21,> 42.8,CC(=O)N[C@@H](Cc1c[nH]c2ccccc12)C(=O)NC1CC1
22,4.5,Cc1c(C(=O)Nc2cccc(S(=O)(=O)N3CCOCC3)c2)oc2ccc(Br)cc12
23,> 35.1,Cc1csc(Nc2ccc(C(=O)O)cc2)n1
24,< 0.6,COc1ccccc1C(=O)Nc1cccc2c1CCCC2
25,> 46.1,CN(CC(=O)Nc1cccc(F)c1)CC(=O)N1CCCCC1
26,0.9,N#Cc1nc(-c2ccc(F)cc2)oc1N1CCCCC1

row,solubility kinetic [µg/mL],Compound
1,1.7,N#C/C(=C/c1ccc(-c2ccccc2[N+](=O)[O-])o1)C(N)=O
2,> 40.5,O=C(c1c[nH]c2ccccc2c1=O)N1CCCCCC1
3,40.5,CS(=O)(=O)N(CC(=O)NCCSC1CCCCC1)c1ccccc1
4,10.8,Cc1nc(SCC(=O)N2CC(=O)Nc3ccccc32)nc(C)c1C
5,> 47.7,O=C(c1ccc(Cn2cc([N+](=O)[O-])cn2)o1)N1CCCCCC1
6,0.6,O=C(Nc1ccc(Cl)cc1)Nc1ccccn1
7,41.9,COc1ccc(C(=O)NC2CCCc3ccccc32)c(OC)c1OC (stereo not given)
8,3.9,NS(=O)(=O)c1ccc(CNC(=O)c2ccc3ccccc3n2)cc1
9,> 42.7,COc1ccc(C(=O)NCCN2CCCC2)cc1.Cl
10,> 35.5,O=C(NN=C1CCCC1)c1ccc(Cl)cc1
11,> 48.6,O=C(CCNC(=O)c1ccco1)Nc1ccccc1OC(F)F
12,3.5,O=C(COC(=O)/C=C/c1ccccc1)NCCc1ccc(F)cc1
13,53.8,Cc1ccc(NS(=O)(=O)c2ccc(C(=O)NCc3ccccn3)cc2)cc1
14,29.9,CCC(=O)N1CCCC(C(=O)c2ccc(-c3ccccc3)cc2)C1 (stereo not given)
15,2.8,Cc1cnc(C(=O)Oc2ccc(-c3ccccc3)cc2)cn1
16,> 42.2,CC(Oc1ccccc1)C(=O)N1CCc2ccccc2C1 (stereo not given)
17,4,COc1ccc(CC(=O)NC(=S)Nc2cccc(C)c2)cc1
18,> 44.6,Cc1ccccc1C(=O)NCCCNC(=O)c1ccccn1
19,> 46.4,CC1=NN(C(=O)CCc2ccccc2)C(O)(c2ccncc2)C1 (stereo not given)
20,> 50.8,CN1CCN(c2nc(-c3ccccc3Cl)nc3ccccc23)CC1
21,> 50.9,O=C(CSc1nncc2ccccc12)Nc1cccc(C(=O)O)c1
22,> 45.4,COCCSc1ccccc1C(=O)NCc1cccnc1
23,40.8,Cc1ccc(NC(=O)CC2(CC(=O)O)CCCC2)c(C)c1
24,> 52.5,CCSC1=NCCN1C(=O)c1c(-c2ccccc2Cl)noc1C
25,> 49,Cc1ccc(S(=O)(=O)NCC(=O)N2CCCC2C(=O)O)cc1 (stereo not drawn) (Tos-Gly-[ξP]-OH)
26,42.1,O=C(COC(=O)c1cccnc1)Nc1cccc2ccccc12
